The source of these data is ChEMBL document CHEMBL5500392, “Functional and Structural Characterization of Clinical-Stage Janus Kinase 2 Inhibitors Identifies Determinants for Drug Selectivity” (J Med Chem, 2024).

Calls of active or inactive are those of the source. The calls are words filed in the database; no cut-off is given here.

Experiment [1] deals with BaF3. The experiment can be described thus: Cytotoxicity against IL-3 dependent humanized mouse BaF3 cells expressing human JAK2 V617F mutant assessed as inhibition of cell growth incubated for 48 hrs by alamarBlue assay. Format: functional, cell-based. A general note: The colour change of resazurin is a common sign of viable cells or microbes.
Experiment [2] concerns BaF3. Briefly: Cytotoxicity against IL-3 dependent humanized mouse BaF3 cells expressing wild type human JAK2 assessed as inhibition of cell growth incubated for 48 hrs by alamarBlue assay. It is filed as functional, cell-based.
The target in experiment [3] is T1, Tyrosine-protein kinase JAK1 (Homo sapiens, UniProt P23458). Briefly: Inhibition of recombinant human JAK1 assessed as inhibition of substrate phosphorylation measured every 5 mins for 30 mins by LANCE Ultra kinase assay. In general terms: Time-resolved FRET reads energy transfer from a long-lived donor to a nearby acceptor.
T1 sequence (P23458 whole entry, the tested form may be a part): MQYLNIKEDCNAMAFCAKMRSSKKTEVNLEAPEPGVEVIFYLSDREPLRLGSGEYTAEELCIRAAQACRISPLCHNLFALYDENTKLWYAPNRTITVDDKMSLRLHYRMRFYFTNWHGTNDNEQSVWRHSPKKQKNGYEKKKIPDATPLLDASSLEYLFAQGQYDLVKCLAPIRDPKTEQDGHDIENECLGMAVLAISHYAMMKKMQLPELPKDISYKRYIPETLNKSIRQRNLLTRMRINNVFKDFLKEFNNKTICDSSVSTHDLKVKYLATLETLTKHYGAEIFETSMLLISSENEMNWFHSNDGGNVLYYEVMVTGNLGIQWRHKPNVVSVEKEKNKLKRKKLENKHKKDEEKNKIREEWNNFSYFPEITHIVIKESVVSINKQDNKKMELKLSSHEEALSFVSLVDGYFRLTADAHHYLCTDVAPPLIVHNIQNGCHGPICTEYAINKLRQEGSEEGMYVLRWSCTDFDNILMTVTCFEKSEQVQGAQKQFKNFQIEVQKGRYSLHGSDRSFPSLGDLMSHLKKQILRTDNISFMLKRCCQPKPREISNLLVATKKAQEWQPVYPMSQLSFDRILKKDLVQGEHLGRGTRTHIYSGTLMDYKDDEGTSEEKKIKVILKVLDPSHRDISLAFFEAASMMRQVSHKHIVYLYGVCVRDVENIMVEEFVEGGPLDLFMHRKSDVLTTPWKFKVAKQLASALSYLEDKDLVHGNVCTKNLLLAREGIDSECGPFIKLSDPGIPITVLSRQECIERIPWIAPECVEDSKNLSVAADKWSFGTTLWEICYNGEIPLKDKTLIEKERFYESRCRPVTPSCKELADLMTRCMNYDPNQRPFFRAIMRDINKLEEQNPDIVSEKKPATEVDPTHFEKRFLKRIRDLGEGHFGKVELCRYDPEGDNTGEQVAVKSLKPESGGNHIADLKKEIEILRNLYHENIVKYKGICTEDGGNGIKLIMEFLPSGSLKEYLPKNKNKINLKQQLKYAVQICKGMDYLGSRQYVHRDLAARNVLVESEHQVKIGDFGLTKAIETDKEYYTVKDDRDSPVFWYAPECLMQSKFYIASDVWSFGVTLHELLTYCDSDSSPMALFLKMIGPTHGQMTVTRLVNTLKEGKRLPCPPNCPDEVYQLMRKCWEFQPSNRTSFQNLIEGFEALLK
Experiment [4] deals with T1, Tyrosine-protein kinase JAK1. The experiment can be described thus: Binding affinity to recombinant human JAK1 kinase domain by fluorescence polarization assay.
Experiment [5] addresses T2, Non-receptor tyrosine-protein kinase TYK2 (Homo sapiens, UniProt P29597). Briefly: Inhibition of recombinant human TYK2 assessed as inhibition of substrate phosphorylation measured every 5 mins for 30 mins by LANCE Ultra kinase assay.
Experiment [6] deals with T2, Non-receptor tyrosine-protein kinase TYK2. Briefly: Binding affinity to recombinant human TYK2 kinase domain by fluorescence polarization assay. Background: Fluorescence polarisation rises when a labelled molecule tumbles more slowly, as on binding a larger partner.
Experiment [7] has the same target. The experiment can be described thus: Binding affinity to recombinant human TYK2 JH2 (564 to 876-His residues) pseudokinase domain by fluorescence polarization assay.
Experiment [8] addresses T3, Tyrosine-protein kinase JAK2 (Homo sapiens, UniProt O60674). The settings on record: dose 30-200 µM.
Experiment [9] concerns the target T3, Tyrosine-protein kinase JAK2. The settings on record: dose 30-200 µM. This is another data set of the same source.
For experiment [10] the target is unchanged. The note with it: dose 30-200 µM. This is another data set of the same source.
For experiment [11] the target is unchanged. Briefly: Binding affinity to recombinant human JAK2 kinase domain (840 to 1132 residues) assessed as change in enthalpy at 30 to 200 uM by fluorescence polarization measurement combined ITC analysis. The settings on record: dose 30-200 µM.
For experiment [12], the species on record is Homo sapiens. Briefly: Selectivity index, ratio of IC50 for inhibition of JAK1-mediated IL-6 induced STAT3 phosphorylation in human whole blood CD33-positive monocytes to IC50 for inhibition of JAK1/TYK2-mediated IFN-alpha induced STAT1 phosphorylation in whole blood CD33-positive monocytes. It is filed as cell-based.
The target of experiment [13] is T3, Tyrosine-protein kinase JAK2. Briefly: Binding affinity to recombinant human JAK2 kinase domain (840 to 1132 residues) assessed as dissociation constant by fluorescence polarization measurement combined ITC analysis.
Experiment [14] has as its target T4, Tyrosine-protein kinase JAK3 (Homo sapiens, UniProt P52333).
T4 sequence (P52333 whole entry): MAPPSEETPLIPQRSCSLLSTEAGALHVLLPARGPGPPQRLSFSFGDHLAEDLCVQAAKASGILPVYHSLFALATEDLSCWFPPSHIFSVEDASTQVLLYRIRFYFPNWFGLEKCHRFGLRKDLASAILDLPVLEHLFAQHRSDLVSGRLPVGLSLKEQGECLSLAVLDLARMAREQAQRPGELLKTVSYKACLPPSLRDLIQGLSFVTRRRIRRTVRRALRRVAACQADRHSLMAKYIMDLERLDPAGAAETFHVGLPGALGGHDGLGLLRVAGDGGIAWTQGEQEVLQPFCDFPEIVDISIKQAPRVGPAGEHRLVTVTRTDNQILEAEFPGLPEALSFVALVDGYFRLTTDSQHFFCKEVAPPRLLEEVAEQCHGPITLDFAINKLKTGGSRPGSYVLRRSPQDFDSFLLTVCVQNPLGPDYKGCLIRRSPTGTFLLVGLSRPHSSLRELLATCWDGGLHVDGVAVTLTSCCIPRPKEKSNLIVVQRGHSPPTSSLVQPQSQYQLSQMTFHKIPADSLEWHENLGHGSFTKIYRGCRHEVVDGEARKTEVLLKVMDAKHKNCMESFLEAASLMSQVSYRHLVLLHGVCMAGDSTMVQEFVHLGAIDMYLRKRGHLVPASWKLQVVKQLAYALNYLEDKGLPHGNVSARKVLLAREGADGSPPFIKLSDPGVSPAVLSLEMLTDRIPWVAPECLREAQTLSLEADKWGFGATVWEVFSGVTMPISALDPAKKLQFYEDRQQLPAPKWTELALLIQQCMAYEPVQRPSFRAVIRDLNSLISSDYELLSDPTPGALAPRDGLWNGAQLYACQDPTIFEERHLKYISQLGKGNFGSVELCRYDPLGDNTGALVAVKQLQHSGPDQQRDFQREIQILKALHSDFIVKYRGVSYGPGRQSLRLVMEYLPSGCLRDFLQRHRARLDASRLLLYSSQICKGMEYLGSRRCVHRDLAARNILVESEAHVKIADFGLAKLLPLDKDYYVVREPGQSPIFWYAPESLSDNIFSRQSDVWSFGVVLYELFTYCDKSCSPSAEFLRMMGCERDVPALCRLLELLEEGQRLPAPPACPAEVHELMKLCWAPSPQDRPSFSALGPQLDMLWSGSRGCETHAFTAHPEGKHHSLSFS
Briefly: Inhibition of recombinant human JAK3 assessed as inhibition of substrate phosphorylation measured every 5 mins for 30 mins by LANCE Ultra kinase assay.

The target of experiment [15] is T3, Tyrosine-protein kinase JAK2. The experiment can be described thus: Binding affinity to recombinant human JAK2 kinase domain by fluorescence polarization assay.
Experiment [16] has the same target. The experiment can be described thus: Inhibition of recombinant human JAK2 assessed as inhibition of substrate phosphorylation measured every 5 mins for 30 mins by LANCE Ultra kinase assay.
The target is the same in experiment [17]. Briefly: Inhibition of JAK2-mediated erythropoietin-induced STAT5 phosphorylation in human TF-1 cells pretreated for 60 mins followed by erythropoietin addition and measured after 15 mins by pacific orange/pacific blue NHS esters based Beckmann coulter flow cytometer. Format: cell-based.
Experiment [18] is described as follows: Selectivity index, ratio of IC50 for cytotoxicity against IL-3 dependent humanized mouse BaF3 cells expressing wild type human JAK2 to IC50 for cytotoxicity against IL-3 dependent humanized mouse BaF3 cells expressing human JAK2 V617F mutant. It is filed as functional.
In experiment [19] the target is T3, Tyrosine-protein kinase JAK2. The experiment can be described thus: Binding affinity to recombinant human JAK2 kinase domain (840 to 1132 residues) assessed as change in entropy at 30 to 200 uM by fluorescence polarization measurement combined ITC analysis. The note with it: dose 30-200 µM.
The species entered for experiment [20] is Homo sapiens. Briefly: Selectivity index, ratio of IC50 for inhibition of JAK1/JAK2-mediated IFNgamma-induced STAT1 phosphorylation in human whole blood CD33-positive monocytes to IC50 for inhibition of JAK1/TYK2-mediated IFN-alpha induced STAT1 phosphorylation in whole blood CD33-positive monocytes. Format: cell-based.
The target in experiment [21] is T3, Tyrosine-protein kinase JAK2. Briefly: Binding affinity to recombinant human JAK2 kinase domain (840 to 1132 residues) assessed as gibbs free energy change at 30 to 200 uM by fluorescence polarization measurement combined ITC analysis. The note with it: dose 30-200 µM.
Experiment [22] is filed under the species Homo sapiens. Briefly: Selectivity index, ratio of IC50 for inhibition of JAK2-mediated GM-CSF-induced STAT5 phosphorylation in human whole blood CD33-positive monocytes to IC50 for inhibition of JAK1/TYK2-mediated IFN-alpha induced STAT1 phosphorylation in whole blood CD33-positive monocytes. Format: cell-based.
In experiment [23] the target is T4, Tyrosine-protein kinase JAK3. The experiment can be described thus: Binding affinity to recombinant human JAK3 kinase domain by fluorescence polarization assay.
Experiment [24] is filed under the species Homo sapiens. Briefly: Selectivity index, ratio of IC50 for inhibition of JAK1/JAK3-mediated IL-2 induced STAT5 phosphorylation in human whole blood CD4+ T cells to IC50 for inhibition of JAK1/TYK2-mediated IFN-alpha induced STAT1 phosphorylation in whole blood CD33-positive monocytes. Format: cell-based.
In experiment [25] the target is T1, Tyrosine-protein kinase JAK1. Briefly: Binding affinity to recombinant human JAK1 JH2 (553 to 856-His residues) pseudokinase domain by fluorescence polarization assay.
Experiment [26] concerns the target T3, Tyrosine-protein kinase JAK2. The experiment can be described thus: Binding affinity to recombinant human JAK2 kinase domain (840 to 1132 residues) assessed as dissociation constant by ITC analysis.
Experiment [27] is filed under the species Homo sapiens. The experiment can be described thus: Selectivity index, ratio of IC50 for recombinant human JAK1 kinase domain to IC50 for recombinant human JAK2 kinase domain.

T2 sequence (P29597 whole entry, the tested form may be a part): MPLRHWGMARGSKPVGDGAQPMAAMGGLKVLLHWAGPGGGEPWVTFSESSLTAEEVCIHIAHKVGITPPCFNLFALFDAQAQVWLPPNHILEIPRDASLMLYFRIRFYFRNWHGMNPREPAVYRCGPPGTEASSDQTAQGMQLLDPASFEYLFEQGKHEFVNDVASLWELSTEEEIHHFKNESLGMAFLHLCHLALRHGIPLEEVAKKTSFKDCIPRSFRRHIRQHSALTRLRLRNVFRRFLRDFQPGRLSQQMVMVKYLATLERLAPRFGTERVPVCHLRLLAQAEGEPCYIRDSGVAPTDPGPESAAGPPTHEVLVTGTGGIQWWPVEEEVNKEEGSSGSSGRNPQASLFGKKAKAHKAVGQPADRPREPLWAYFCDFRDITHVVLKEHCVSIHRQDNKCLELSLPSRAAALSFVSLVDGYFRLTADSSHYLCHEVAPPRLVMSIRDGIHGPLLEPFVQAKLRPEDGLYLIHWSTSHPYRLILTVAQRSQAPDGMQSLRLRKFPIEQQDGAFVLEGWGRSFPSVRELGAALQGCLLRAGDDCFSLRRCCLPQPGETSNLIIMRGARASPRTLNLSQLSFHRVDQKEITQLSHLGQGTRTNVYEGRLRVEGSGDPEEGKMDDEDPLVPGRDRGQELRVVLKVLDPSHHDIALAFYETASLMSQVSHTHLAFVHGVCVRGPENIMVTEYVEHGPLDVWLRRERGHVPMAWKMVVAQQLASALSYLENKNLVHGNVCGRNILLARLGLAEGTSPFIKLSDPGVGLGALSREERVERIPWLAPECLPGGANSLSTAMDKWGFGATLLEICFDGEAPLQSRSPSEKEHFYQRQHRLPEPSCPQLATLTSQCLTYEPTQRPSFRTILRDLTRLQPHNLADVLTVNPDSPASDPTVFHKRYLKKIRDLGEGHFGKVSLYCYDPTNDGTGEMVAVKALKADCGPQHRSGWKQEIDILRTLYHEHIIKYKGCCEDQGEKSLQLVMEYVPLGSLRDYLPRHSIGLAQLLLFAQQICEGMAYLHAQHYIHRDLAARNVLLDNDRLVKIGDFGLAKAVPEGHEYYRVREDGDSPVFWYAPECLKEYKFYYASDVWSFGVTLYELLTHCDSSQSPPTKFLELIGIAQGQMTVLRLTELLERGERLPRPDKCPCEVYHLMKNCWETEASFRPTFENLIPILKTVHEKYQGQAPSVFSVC
T3 sequence (O60674 whole entry): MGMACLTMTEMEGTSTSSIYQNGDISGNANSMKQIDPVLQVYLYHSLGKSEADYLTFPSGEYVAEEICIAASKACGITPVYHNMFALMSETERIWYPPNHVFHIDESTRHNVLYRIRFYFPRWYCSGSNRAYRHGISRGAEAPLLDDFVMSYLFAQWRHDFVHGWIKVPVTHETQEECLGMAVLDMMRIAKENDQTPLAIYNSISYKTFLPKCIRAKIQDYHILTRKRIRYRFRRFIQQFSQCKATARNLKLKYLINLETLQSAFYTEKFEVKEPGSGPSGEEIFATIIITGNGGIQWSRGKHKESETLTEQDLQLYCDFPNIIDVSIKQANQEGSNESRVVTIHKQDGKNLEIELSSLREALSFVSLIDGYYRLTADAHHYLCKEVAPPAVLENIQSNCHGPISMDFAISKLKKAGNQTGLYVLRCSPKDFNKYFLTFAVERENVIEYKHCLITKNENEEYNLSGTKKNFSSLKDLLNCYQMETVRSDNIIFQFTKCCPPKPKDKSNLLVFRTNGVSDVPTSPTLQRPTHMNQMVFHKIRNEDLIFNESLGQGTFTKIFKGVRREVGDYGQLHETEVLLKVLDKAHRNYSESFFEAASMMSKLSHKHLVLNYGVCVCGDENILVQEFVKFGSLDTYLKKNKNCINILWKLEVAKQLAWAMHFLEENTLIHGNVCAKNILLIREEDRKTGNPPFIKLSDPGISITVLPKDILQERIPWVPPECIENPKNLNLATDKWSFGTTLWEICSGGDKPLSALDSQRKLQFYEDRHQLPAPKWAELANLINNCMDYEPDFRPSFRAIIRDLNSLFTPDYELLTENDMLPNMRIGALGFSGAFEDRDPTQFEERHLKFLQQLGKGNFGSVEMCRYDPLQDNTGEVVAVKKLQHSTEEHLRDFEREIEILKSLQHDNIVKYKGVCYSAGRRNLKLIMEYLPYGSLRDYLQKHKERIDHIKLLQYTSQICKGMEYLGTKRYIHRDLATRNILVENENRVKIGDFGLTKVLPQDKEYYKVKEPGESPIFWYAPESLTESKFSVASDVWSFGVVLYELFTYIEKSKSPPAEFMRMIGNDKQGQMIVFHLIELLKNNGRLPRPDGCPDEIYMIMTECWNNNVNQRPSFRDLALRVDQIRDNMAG

Regarding `N#CC[C@H](C1CCCC1)n1cc(-c2ncnc3[nH]ccc23)cn1`, the result in the experiment on BaF3 [1] and with BaF3 [2] was Active.

Turning to `O=C(Nc1c[nH]nc1-c1nc2cc(CN3CCOCC3)ccc2[nH]1)NC1CC1` [AT-9283], the IC50 (as a rule, the concentration that gives 50% inhibition) in [3] came to 0.065 µM. Besides, the Kd (as a rule, the equilibrium constant for the complex coming apart) in experiment [4] is 0.037 µM.

With `C1=C/COCc2cc(ccc2OCCN2CCCC2)Nc2nccc(n2)-c2cccc(c2)COC/1` [PACRITINIB], the IC50 in experiment [3] was determined as 0.371 µM; in [5], 0.536 µM. The Kd was 0.318 µM in experiment [4] and 0.125 µM in experiment [6].

For the molecule `C1=N/C2=N/c3ccc(OCCN4CCCC4)c(c3)COC/C=C/COCc3cccc(c3)C(=C1)N2`, the outcome in experiment [7] was Active. Besides, the deltaG in experiment [8] was -10.9 kcal/mol. Besides, the deltaH in experiment [9] was -7.6 kcal/mol. In addition, the -TdeltaS in experiment [10] was -3.3 kcal/mol.

With `N#CCNC(=O)c1ccc(-c2ccnc(Nc3ccc(N4CCOCC4)cc3)n2)cc1`, the deltaG in experiment [8] was -11.3 kcal/mol. In addition, in experiment [9], the deltaH is -14.4 kcal/mol. The molecule also came in with a -TdeltaS in experiment [10] of 3.2 kcal/mol.

On to `Cc1cc(Nc2cc(CN3CCOCC3)c3nc(C)c(Cc4ccc(Cl)cc4F)n3n2)n[nH]1` [GANDOTINIB], for which the deltaH in experiment [11] is -4.1 kcal/mol. The Ratio IC50 was found to be 4 in the experiment filed under Homo sapiens [12]; 1.5 in experiment [18]; 2.3 in the experiment filed under Homo sapiens [20]; 7.5 in the experiment filed under Homo sapiens [22]; 1.1 in the experiment filed under Homo sapiens [24]. Besides, the IC50 in experiment [3] turned out to be 0.0073 µM; in experiment [5], 0.092 µM; in experiment [14], 0.199 µM; in experiment [16] it was 0.0062 µM; in [17], 0.155 µM. For the same molecule, the Kd in experiment [13] was found to be 0.011 µM; in [15], 0.011 µM; in experiment [4] it was 0.0082 µM; in experiment [6] it was 0.016 µM; in [23], 0.013 µM. For the same molecule, the -TdeltaS in experiment [19] was -6.6 kcal/mol. The deltaG in [21] is -10.7 kcal/mol.

Regarding `CCS(=O)(=O)N1CCN(c2ccc(Nc3ncc(C(N)=O)c(NC4CC4)n3)cc2)CC1` [CERDULATINIB], the result in [7] and in experiment [25] was Active. The IC50 turned out to be 0.022 µM in [3], 0.026 µM in experiment [5], 0.011 µM in experiment [16] and 0.099 µM in experiment [17]. In addition, the Kd in experiment [15] came out at 0.0048 µM; in experiment [26] it was 0.0089 µM; in experiment [4], 0.023 µM; in experiment [6], 0.0069 µM. Also, the deltaG in experiment [8] is -10.8 kcal/mol. The molecule further showed a deltaH in [9] of -10.4 kcal/mol. The molecule also returned a -TdeltaS in experiment [10] of -0.4 kcal/mol.

As for `O=C(Nc1c[nH]nc1-c1nc2ccc(CN3CCOCC3)cc2[nH]1)NC1CC1`, the outcome in experiment [7] and in experiment [25] was Active.

Take `N#CCC1(n2cc(-c3ncnc4[nH]ccc34)cn2)CN(C2CCN(C(=O)c3ccnc(C(F)(F)F)c3F)CC2)C1` [ITACITINIB]: the Ratio IC50 stood at 1.2 in the experiment filed under Homo sapiens [12], 0.8 in the experiment filed under Homo sapiens [20], 16.7 in the experiment listed under Homo sapiens [22] and 0.4 in the experiment filed under Homo sapiens [24]. The IC50 worked out at 0.0034 µM in experiment [3]; 4.1 µM in experiment [5]; 10.8 µM in experiment [14]; 0.054 µM in experiment [16]; 0.488 µM in experiment [17]. In addition, the Kd came out at 0.026 µM in experiment [15]; 0.0107 µM in experiment [26]; 0.051 µM in [4]; 0.385 µM in experiment [6]; 0.324 µM in [23]. In experiment [8], this molecule gave a deltaG of -10.7 kcal/mol. In experiment [9], this molecule yielded a deltaH of -5.4 kcal/mol. For the same molecule, in experiment [10], the -TdeltaS is -5.4 kcal/mol.

In the case of `C[C@H](Nc1cc(-c2cnn(C)c2)cc(Nc2cnccn2)n1)c1ccc(F)cc1` [NS-018], the Ratio IC50 stood at 2.8 in the experiment filed under Homo sapiens [12]; 0.6 in the experiment listed under Homo sapiens [20]; 5.8 in the experiment filed under Homo sapiens [22]; 9 in the experiment listed under Homo sapiens [27]; 1.7 in the experiment filed under Homo sapiens [24]. For the same molecule, the IC50 in experiment [3] is 0.0071 µM; in experiment [5], 0.216 µM; in experiment [14], 0.182 µM; in experiment [16], 0.0008 µM; in experiment [17], 0.041 µM. Also, the Kd was 0.0045 µM in [15]; 0.004 µM in [26]; 0.016 µM in experiment [4]; 0.021 µM in experiment [6]; 0.019 µM in experiment [23]. For the same molecule, the deltaG in [8] is -11.3 kcal/mol. The molecule also showed a deltaH in experiment [9] of -12.5 kcal/mol. In [10], the -TdeltaS was 1.2 kcal/mol.

With `C[C@]12O[C@H](C[C@]1(O)CO)n1c3ccccc3c3c4c(c5c6ccccc6n2c5c31)CNC4=O`, the outcome in the experiment on BaF3 [1] and in the experiment with BaF3 [2] was Active.
